Laboratory results taken from patent US8748415B2 (priority 2011, dated 2014).

System: recombinant NL4-3 virus (Renilla luciferase in nef, Gag P373S)
Assay: HIV cell culture assay (luciferase activity in MT-2 cells infected with NLRluc recombinant virus)
Type: cell-based
Settings: NL43, MT-2 cells infected 4-5 days with NLRluc recombinant virus, class symbol
In short: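 Activity was read as luciferase output (Dual Luciferase reagents premixed with lysis solution) after 4–5 days of infection in serially diluted inhibitor. Host cells were MT-2 in 10% FBS RPMI. The reporter virus came from transfected 293T cells and was titered on MT-2.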

C=C(C)[C@@H]1CC[C@]2(CNCCC(=O)N3CCN(CCS(C)(=O)=O)CC3)CC[C@]3(C)[C@H](CC[C@@H]4[C@@]5(C)CC=C(c6ccc(C(=O)O)cc6)C(C)(C)[C@@H]5CC[C@]43C)[C@@H]12 [Example 124, 4-((1R,3aS,5aR,5bR,7aR,11aS,11bR,13aR,13bR)-5a,5b,8,8,11a-pentamethyl-3a-((3-(4-(2-(methylsulfonyl)ethyl)piperazin-1-yl)-3-oxopropylamino)methyl)-1-(prop-1-en-2-yl)-2,3,3a,4,5,5a,5b,6,7,7a,8,11,11a,11b,12,13,13a,13b-octadecahydro-1H-cyclopenta[a]chrysen-9-yl)benzoic acid]
EC50: < 100 nM

C=C(C)[C@@H]1CC[C@]2(CNC3(C(=O)OC)CC3)CC[C@]3(C)[C@H](CC[C@@H]4[C@@]5(C)CC=C(c6ccc(C(=O)O)cc6)C(C)(C)[C@@H]5CC[C@]43C)[C@@H]12 [Example 51, 4-((1R,3aS,5aR,5bR,7aR,11aS,11bR,13aR,13bR)-3a-((1-(methoxycarbonyl)cyclopropylamino)methyl)-5a,5b,8,8,11a-pentamethyl-1-(prop-1-en-2-yl)-2,3,3a,4,5,5a,5b,6,7,7a,8,11,11a,11b,12,13,13a,13b-octadecahydro-1H-cyclopenta[a]chrysen-9-yl)benzoic acid]
EC50: < 100 nM

C=C(C)[C@@H]1CC[C@]2(CNC(=O)[C@H](N)CCS(C)(=O)=O)CC[C@]3(C)[C@H](CC[C@@H]4[C@@]5(C)CC=C(c6ccc(C(=O)O)cc6)C(C)(C)[C@@H]5CC[C@]43C)[C@@H]12 [Example 135, 4-((1R,3aS,5aR,5bR,7aR,11aS,11bR,13aR,13bR)-3a-(((R)-2-amino-4-(methylsulfonyl)butanamido)methyl)-5a,5b,8,8,11a-pentamethyl-1-(prop-1-en-2-yl)-2,3,3a,4,5,5a,5b,6,7,7a,8,11,11a,11b,12,13,13a,13b-octadecahydro-1H-cyclopenta[a]chrysen-9-yl)benzoic acid]
EC50: < 100 nM

C=C(C)[C@@H]1CC[C@]2(CNCCCn3ccnc3C)CC[C@]3(C)[C@H](CC[C@@H]4[C@@]5(C)CC=C(c6ccc(C(=O)O)cc6)C(C)(C)[C@@H]5CC[C@]43C)[C@@H]12 [Example 22]
EC50: < 100 nM

C=C(C)[C@@H]1CC[C@]2(CNCCN3CCN(C)CC3)CC[C@]3(C)[C@H](CC[C@@H]4[C@@]5(C)CC=C(c6ccc(C(=O)O)cc6)C(C)(C)[C@@H]5CC[C@]43C)[C@@H]12 [Example 11, 4-((1R,3aS,5aR,5bR,7aR,11aS,1bR,13aR,13bR)-5a,5b,8,8,11a-pentamethyl-3a-((2-(4-methylpiperazin-1-yl)ethylamino)methyl)-1-(prop-1-en-2-yl)-2,3,3a,4,5,5a,5b,6,7,7a,8,11,11a,11b,12,13,13a,13b-octadecahydro-1H-cyclopenta[a]chrysen-9-yl)benzoic acid]
EC50: < 100 nM

C=C(C)[C@@H]1CC[C@]2(CNCCn3ccnc3C)CC[C@]3(C)[C@H](CC[C@@H]4[C@@]5(C)CC=C(c6ccc(C(=O)O)cc6)C(C)(C)[C@@H]5CC[C@]43C)[C@@H]12 [Example 59, 4-((1R,3aS,5aR,5bR,7aR,11aS,11bR,13aR,13bR)-5a,5b,8,8,11a-pentamethyl-3a-((2-(2-methyl-1H-imidazol-1-yl)ethylamino)methyl)-1-(prop-1-en-2-yl)-2,3,3a,4,5,5a,5b,6,7,7a,8,11,11a,11b,12,13,13a,13b-octadecahydro-1H-cyclopenta[a]chrysen-9-yl)benzoic acid]
EC50: < 100 nM

C=C(C)[C@@H]1CC[C@]2(CNS(=O)(=O)c3ccc(C(=O)O)cc3)CC[C@]3(C)[C@H](CC[C@@H]4[C@@]5(C)CC=C(c6ccc(C(=O)O)cc6)C(C)(C)[C@@H]5CC[C@]43C)[C@@H]12 [Example 167, 4-(N—(((1R,3aS,5aR,5bR,7aR,11aS,11bR,13aR,13bR)-9-(4-carboxyphenyl)-5a,5b,8,8,11a-pentamethyl-1-(prop-1-en-2-yl)-2,3,3a,4,5,5a,5b,6,7,7a,8,11,11a,11b,12,13,13a,13b-octadecahydro-1H-cyclopenta[a]chrysen-3a-yl)methyl)sulfamoyl)benzoic acid]
EC50: < 100 nM
